Literature values, collected in publication PMC2217447 (The Journal of General Physiology, 2004).
“Also recorded” adds a separate entry of the source. Where two headings read alike, the source gives them in different places.

Assays:
Shaker B K^+ channels [1] = target: T1, Shaker B K^+ channels (Drosophila melanogaster, UniProt P08510); settings: external TEA, ref Gómez-Lagunas, 1997
Shaker B K^+ channels [2] = target: T1, Shaker B K^+ channels; settings: for effect of external K^+ on block of Shaker (in words): ref Goldstein and Miller, 1993

T1 sequence (P08510 whole entry): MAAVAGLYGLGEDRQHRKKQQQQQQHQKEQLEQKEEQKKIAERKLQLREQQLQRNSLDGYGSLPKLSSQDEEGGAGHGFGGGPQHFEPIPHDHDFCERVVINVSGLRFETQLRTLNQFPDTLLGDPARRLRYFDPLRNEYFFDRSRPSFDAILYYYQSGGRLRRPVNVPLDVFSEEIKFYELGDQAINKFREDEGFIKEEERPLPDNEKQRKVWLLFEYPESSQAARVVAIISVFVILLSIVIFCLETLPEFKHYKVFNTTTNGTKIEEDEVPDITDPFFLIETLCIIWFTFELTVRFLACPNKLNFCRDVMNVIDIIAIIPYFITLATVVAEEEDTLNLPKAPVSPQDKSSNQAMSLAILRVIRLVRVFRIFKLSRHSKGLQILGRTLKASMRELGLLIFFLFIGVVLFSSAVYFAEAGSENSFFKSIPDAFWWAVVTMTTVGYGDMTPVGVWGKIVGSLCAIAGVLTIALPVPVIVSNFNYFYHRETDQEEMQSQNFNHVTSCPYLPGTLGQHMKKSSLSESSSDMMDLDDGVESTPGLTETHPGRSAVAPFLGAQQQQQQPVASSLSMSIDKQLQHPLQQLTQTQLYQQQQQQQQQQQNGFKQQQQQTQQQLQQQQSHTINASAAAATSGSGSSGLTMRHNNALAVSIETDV

CC[N+](CC)(CC)CC [TEAo, tetraethylammonium]
change of binding affinity in 0 K^+ (in words) (Shaker B K^+ channels [1]; Shaker channels): did not find a significant change in the binding affinity
affinity (Kd) for inhibiting drop of GK vs block of IK (in words) (Shaker B K^+ channels [1]): basically the same affinity (Kd) with which it blocks the K^+ current (IK)
effect on collapse of GK in 0 K^+ (in words) (Shaker B K^+ channels [1]): impedes the drop of GK in 0 K^+; also recorded: impedes the collapse of GK
effect on collapse of GK in 0 K^+ (in words) (Shaker B K^+ channels [1]; listed as TEA): the collapse of GK is prevented

Agitoxin2 [AgTx2]
effect of external K^+ on binding to Shaker (in words) (Shaker B K^+ channels [2]; ref Ranganathan et al., 1996): destabilized by Ko ^+ ions

ChTx R25Q: mutant R25Q (a glutamine substituting arginine in position 25) of ChTx
effect of external K^+ on block of Shaker (in words) (Shaker B K^+ channels [2]): destabilized by Ko ^+ ions; also recorded: decreased by Ko ^+

Charybdotoxin [ChTx]
effect of external K^+ on block of Shaker (in words) (Shaker B K^+ channels [2]): not altered by external K^+ ions; also recorded: not destabilized by Ko ^+
